Each molecule was assayed against P2X7 receptor (Homo sapiens (Human), UniProt Q99572) (assay: P2X7 FLIPR assay: antagonism of BzATP response in 293 HEK cells stably expressing P2X7 receptor). Conditions: FLIPR fluorescence (Fluo-4), agonist BzATP, 293 HEK cells stably transfected with P2X7 receptor.
Format: cell-based
Protocol: Cells were plated to cell density of approximately 15,000 cells/well in 384-well assay plates (50 μl/well) with 1.5% low serum media (DMEM, 1.5% BCS, 1% L-glut (2 mM), 1% P/S).
Cells were plated to cell density of approximately 15,000 cells/well in 384-well assay plates (50 μl/well) with 1.5% low serum media (DMEM, 1.5% FBS, 1% L-glut (2 mM), 10 mM HEPES, 1% P/S). Cells were plated 24 hours prior to assay. Cells expressing human, rat or mouse P2X7 receptor were assayed in the following manner.
Fluo-4 NW dye mix (Molecular Probes, Inc., Eugene, Oreg., USA) was prepared in buffer (see manufacturer's instructions). Cell plates were removed from the 37° C. incubator, the media discarded and then 30 μL of dye was added to each well. Plates were placed in the 37° C., non-CO2 incubator for 30 minutes and then room temperature for 30 minutes.
Compound mixtures (A) were added to assay plates containing cells and placed at room temperature for 30 minutes, then BzATP (B) was added. Fluorescence was read using the Tetra FLIPR® (Molecular Devices, Inc., Sunnyvale, Calif., USA) and IC50 values were calculated by standard methods to determine antagonist activity.

Chain of P2X7 receptor (Q99572 whole entry): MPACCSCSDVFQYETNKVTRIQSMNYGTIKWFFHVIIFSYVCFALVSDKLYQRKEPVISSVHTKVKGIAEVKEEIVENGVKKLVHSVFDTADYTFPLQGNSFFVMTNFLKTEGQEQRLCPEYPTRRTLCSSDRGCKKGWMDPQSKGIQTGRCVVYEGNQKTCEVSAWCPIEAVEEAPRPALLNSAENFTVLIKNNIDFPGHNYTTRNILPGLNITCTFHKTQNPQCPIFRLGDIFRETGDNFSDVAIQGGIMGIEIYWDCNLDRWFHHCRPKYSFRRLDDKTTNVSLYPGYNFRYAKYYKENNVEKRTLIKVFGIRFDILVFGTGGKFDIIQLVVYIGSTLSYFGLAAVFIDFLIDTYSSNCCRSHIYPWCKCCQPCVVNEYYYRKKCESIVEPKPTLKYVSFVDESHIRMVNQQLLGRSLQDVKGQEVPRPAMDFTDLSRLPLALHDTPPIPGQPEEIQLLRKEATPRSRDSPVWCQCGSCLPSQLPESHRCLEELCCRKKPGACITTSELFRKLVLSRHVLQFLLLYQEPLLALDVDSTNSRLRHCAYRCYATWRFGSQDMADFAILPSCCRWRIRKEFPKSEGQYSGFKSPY

SMILES	IC50
CS(=O)(=O)c1ccc(Cl)c(C(=O)NCC(c2ccc(Cl)cc2)N2CCOCC2)c1 (single isomer, unassigned; (+)) [(+)2-chloro-N-[2-(4-chlorophenyl)-2-morpholino-ethyl]-5-meth] [(+)2-chloro-N-(2-(4-chlorophenyl)-2-morpholinoethyl)-5-(methylsulfonyl)benzamide]	180 nM
Cc1cccc(C(=O)NC[C@H](c2ccc(Cl)cc2)N2CCOCC2)c1Cl [2-Chloro-N-[(S)-2-(4-chloro-phenyl)-2-morpholin-4-yl-ethyl]-3-methyl-benzamide]	0.53 nM
O=C(NCC(c1ccc(C(F)F)nc1)N1CCC(F)(F)CC1)c1cccc(Cl)c1Cl (single isomer, unassigned; (-)) [(−)2,3-dichloro-N-[2-[6-(difluoromethyl)-3-pyridyl]-2-(4,4-d] [(−)2,3-dichloro-N-(2-(2-(difluoromethyl)pyridin-5-yl)-2-(4,4-difluoropiperidin-1-yl)ethyl)benzamide]	4.2 nM
Cc1ncc(C(CNC(=O)c2cccc(Cl)c2Cl)N2CCOCC2)cn1 (single isomer, unassigned; (-)) [(−)2,3-dichloro-N-[2-(2-methylpyrimidin-5-yl)-2-morpholino-e] [(−)2,3-Dichloro-N-[2-(2-methylpyrimidin-5-yl)-2-morpholino-ethyl]benzamide]	27 nM
O=C(NCC(c1ccncc1)N1CCOCC1)c1cccc(Cl)c1Cl (stereo not drawn) [2,3-Dichloro-N-(2-morpholin-4-yl-2-pyridin-4-yl-ethyl)-benzamide]	750 nM
Cc1ncc(C(CNC(=O)c2c(F)cccc2Cl)N2CCC(F)(F)CC2)cn1 (single isomer, unassigned; (+)) [(+)2-chloro-N-[2-(4,4-difluoro-1-piperidyl)-2-(2-methylpyrim] [(+)2-chloro-6-fluoro-N-(2-(4,4-difluoropiperidin-1-yl)-2-(2-methylpyrimidin-5-yl)ethyl)benzamide]	19 nM
COC1CCN(C(CNC(=O)c2cccc(Cl)c2Cl)c2cnc(C)nc2)CC1 (stereo not drawn) [2,3-dichloro-N-(2-(4-methoxypiperidin-1-yl)-2-(2-methylpyrimidin-5-yl)ethyl)benzamide]	3800 nM
O=C(NCC(c1cnc(C(F)(F)F)nc1)N1CCC(F)(F)CC1)c1c(F)cccc1Cl (single isomer, unassigned; (+)) [(+)2-chloro-N-[2-(4,4-difluoro-1-piperidyl)-2-[2-(trifluorom] [(+)2-chloro-6-fluoro-N-(2-(4,4-difluoropiperidin-1-yl)-2-(2-(trifluoromethyl)pyrimidin-5-yl)ethyl)benzamide]	8.3 nM
Cn1cc(C(CNC(=O)c2c(Cl)cccc2Cl)N2CCC(F)(F)CC2)cn1 (single isomer, unassigned; (+)) [(+)2,6-dichloro-N-[2-(4,4-difluoro-1-piperidyl)-2-(1-methylp] [(+)2,6-dichloro-N-(2-(4,4-difluoropiperidin-1-yl)-2-(1-methyl-1H-pyrazol-4-yl)ethyl)benzamide]	56 nM
O=C(NCC(c1cnc(C(F)(F)F)nc1)N1CCC(F)(F)CC1)c1c(F)cc(Cl)cc1Cl (single isomer, unassigned; (-)) [(−)2,4-dichloro-N-[2-(4,4-difluoro-1-piperidyl)-2-[2-(triflu] [(−)2,4-dichloro-6-fluoro-N-(2-(4,4-difluoropiperidin-1-yl)-2-(2-(trifluoromethyl)pyrimidin-5-yl)ethyl)benzamide]	6.5 nM
COc1ccc(C(CNC(=O)c2ccccc2C)N2CCOCC2)cc1 (stereo not drawn) [N-[2-(4-Methoxy-phenyl)-2-morpholin-4-yl-ethyl]-2-methyl-benzamide]	500 nM
Cc1ncc(C(CNC(=O)c2cccc(Cl)c2Cl)N2CCOCC2)cn1 (single isomer, unassigned; (+)) [(+)2,3-dichloro-N-[2-(2-methylpyrimidin-5-yl)-2-morpholino-e] [(+)2,3-Dichloro-N-[2-(2-methylpyrimidin-5-yl)-2-morpholino-ethyl]benzamide]	69 nM

— US9415055B2, “Cyclic amines” (H. Lundbeck A/S, priority 2012, dated 2016)
